From US11091496B2, “Opioid ketal compounds and uses thereof” (priority 2013, dated 2021)
Read-outs that look alike come from different tables or passages of the source. Marks after values point to notes of the source that are not given here.

Key:
[1] = 5% acetic acid 100° C.; for % Oxycodone, % IVA-IVD in hydrolysis mixture: unreacted oxycodone + four isomers of Formula IV, 1 mg/ml
[2] = assay type: physicochemical; conditions: for extent of hydrolysis to hydrocodone in about 4 hours: FIG. 5, FIG. 6; for % hydrocodone, % Ketal in hydrolysis mixture: hydrocodone 1,3-propanediol ketal; for % hydrocodone, % Ketal in hydrolysis mixture / Hydrocodone, 2S,5S ketal in hydrolysis mixture / Hydrocodone, 2R,5R ketal in hydrolysis mixture: 1 mg/ml; for % Oxycodone, % IVA-IVD in hydrolysis mixture: total 1 mg/ml; for relative rate of hydrolysis: comparison of stereoisomers; for Hydrocodone, 2S,5S ketal in hydrolysis mixture: hydrocodone 2S,5S-hexanediol ketal tested separately; for Hydrocodone, 2R,5R ketal in hydrolysis mixture: hydrocodone 2R,5R-hexanediol ketal tested separately
[3] = Ketal hydrolysis at varying pH, buffers at 37° C.; conditions: 1 mg/ml; for hydrolysis of the ketal: 37° C.
[4] = mixture of isomers, 0.1 N HCl 37° C.

COc1ccc2c3c1O[C@H]1C4(CCC5(O)[C@@H](C2)N(C)CC[C@]315)OCCC(C)O4 (stereo partly shown) [Formula V, oxycodone 1,3-butanediol ketal]
time to almost completely hydrolyze to oxycodone ([1]; FIG. 12, FIG. 13): at least 4 hours | time to about 60% hydrolysis ([1]; FIG. 13): about 1 hour | time at which about 50% of the oxycodone is released [2, 4]: about 5 hours | time by which about (almost) 90% oxycodone release occurs [2, 4]: ≤ 25 h

COc1ccc2c3c1O[C@H]1C4(CCC5[C@@H](C2)N(C)CC[C@@]351)OCCCO4 (stereo partly shown) [Hydrocodone 1,3-propanediol ketal]
extent of hydrolysis to hydrocodone in about 4 hours ([2]; 0.1 N HCl 37° C.): nearly complete hydrolysis | % hydrocodone, % Ketal in hydrolysis mixture ([2]; 0.1 N HCl 37° C., 0 h): 93.1% | % hydrocodone, % Ketal in hydrolysis mixture ([2]; 0.1 N HCl 37° C., 0.57 h): 65.7% | % hydrocodone, % Ketal in hydrolysis mixture ([2]; 0.1 N HCl 37° C., 1.25 h): 52.3% | % hydrocodone, % Ketal in hydrolysis mixture ([2]; 0.1 N HCl 37° C., 2 h): 41.8% | % hydrocodone, % Ketal in hydrolysis mixture ([2]; 0.1 N HCl 37° C., 3 h): 32.8% | % hydrocodone, % Ketal in hydrolysis mixture ([2]; 0.1 N HCl 37° C., 4 h): 25.6%

COc1ccc2c3c1O[C@H]1[C@]4(CCC5(O)[C@@H](C2)N(C)CC[C@]315)O[C@H](C)C[C@H](C)O4 (stereo partly drawn) [IVA, oxycodone 2R,4S-pentanediol ketal]
% Oxycodone, % IVA-IVD in hydrolysis mixture ([1]; 0 h): 24% | % Oxycodone, % IVA-IVD in hydrolysis mixture ([1]; 0.5 h): 21.1% | % Oxycodone, % IVA-IVD in hydrolysis mixture ([1]; 1 h): 15.8% | % Oxycodone, % IVA-IVD in hydrolysis mixture ([1]; 2 h): 6% | % Oxycodone, % IVA-IVD in hydrolysis mixture ([1]; 4.35 h): 3.1% | % Oxycodone, % IVA-IVD in hydrolysis mixture ([1]; 10 h): 0% | % Oxycodone, % IVA-IVD in hydrolysis mixture ([2]; 0.1 N HCl 37° C., 0 h): 24.7% | % Oxycodone, % IVA-IVD in hydrolysis mixture ([2]; 0.1 N HCl 37° C., 0.583 h): 25.9% | % Oxycodone, % IVA-IVD in hydrolysis mixture ([2]; 0.1 N HCl 37° C., 1.167 h): 25.6% | % Oxycodone, % IVA-IVD in hydrolysis mixture ([2]; 0.1 N HCl 37° C., 1.75 h): 25% | % Oxycodone, % IVA-IVD in hydrolysis mixture ([2]; 0.1 N HCl 37° C., 2.33 h): 25.9% | % Oxycodone, % IVA-IVD in hydrolysis mixture ([2]; 0.1 N HCl 37° C., 2.92 h): 24.8% | % Oxycodone, % IVA-IVD in hydrolysis mixture ([2]; 0.1 N HCl 37° C., 4 h): 23.7% | % Oxycodone, % IVA-IVD in hydrolysis mixture ([2]; 0.1 N HCl 37° C., 6.5 h): 19.8% | % Oxycodone, % IVA-IVD in hydrolysis mixture ([2]; 0.1 N HCl 37° C., 9.75 h): 15.6% | % Oxycodone, % IVA-IVD in hydrolysis mixture ([2]; 0.1 N HCl 37° C., 13.75 h): 9.9% | % Oxycodone, % IVA-IVD in hydrolysis mixture ([2]; 0.1 N HCl 37° C., 25 h): 4.3%

COc1ccc2c3c1O[C@H]1[C@@]4(CCC5(O)[C@@H](C2)N(C)CC[C@]315)O[C@H](C)C[C@H](C)O4 (stereo partly drawn) [IVB, oxycodone 2S,4R-pentanediol ketal]
% Oxycodone, % IVA-IVD in hydrolysis mixture ([1]; 0 h): 10.9% | % Oxycodone, % IVA-IVD in hydrolysis mixture ([1]; 0.5 h): 8.7% | % Oxycodone, % IVA-IVD in hydrolysis mixture ([1]; 1 h): 9.7% | % Oxycodone, % IVA-IVD in hydrolysis mixture ([1]; 2 h): 9.2% | % Oxycodone, % IVA-IVD in hydrolysis mixture ([1]; 4.35 h): 9% | % Oxycodone, % IVA-IVD in hydrolysis mixture ([1]; 10 h): 4.8% | % Oxycodone, % IVA-IVD in hydrolysis mixture ([2]; 0.1 N HCl 37° C., 0 h): 10.7% | % Oxycodone, % IVA-IVD in hydrolysis mixture ([2]; 0.1 N HCl 37° C., 0.583 h): 10.6% | % Oxycodone, % IVA-IVD in hydrolysis mixture ([2]; 0.1 N HCl 37° C., 1.167 h): 10.7% | % Oxycodone, % IVA-IVD in hydrolysis mixture ([2]; 0.1 N HCl 37° C., 1.75 h): 7.8% | % Oxycodone, % IVA-IVD in hydrolysis mixture ([2]; 0.1 N HCl 37° C., 2.33 h): 8.3% | % Oxycodone, % IVA-IVD in hydrolysis mixture ([2]; 0.1 N HCl 37° C., 2.92 h): 8.7% | % Oxycodone, % IVA-IVD in hydrolysis mixture ([2]; 0.1 N HCl 37° C., 4 h): 9.2% | % Oxycodone, % IVA-IVD in hydrolysis mixture ([2]; 0.1 N HCl 37° C., 6.5 h): 10% | % Oxycodone, % IVA-IVD in hydrolysis mixture ([2]; 0.1 N HCl 37° C., 9.75 h): 10.2% | % Oxycodone, % IVA-IVD in hydrolysis mixture ([2]; 0.1 N HCl 37° C., 13.75 h): 10.4% | % Oxycodone, % IVA-IVD in hydrolysis mixture ([2]; 0.1 N HCl 37° C., 25 h): 9.3%

Hydrocodone 2R,4R-pentanediol ketal
hydrolysis of the ketal ([3]; pH 1, 0 h): 0 | hydrolysis of the ketal ([3]; pH 1, 0.33 h): 50 | hydrolysis of the ketal ([3]; pH 1, 1 h): 90 | hydrolysis of the ketal ([3]; pH 1, 2 h): 99.8 | hydrolysis of the ketal ([3]; pH 1, 4 h): 100 | hydrolysis of the ketal ([3]; pH 1.5, 0 h): 0 | hydrolysis of the ketal ([3]; pH 1.5, 0.33 h): 30.6 | hydrolysis of the ketal ([3]; pH 1.5, 1 h): 59.4 | hydrolysis of the ketal ([3]; pH 1.5, 2 h): 85.1 | hydrolysis of the ketal ([3]; pH 1.5, 4 h): 98.2 | hydrolysis of the ketal ([3]; pH 2, 0 h): 0 | hydrolysis of the ketal ([3]; pH 2, 0.33 h): 8.3 | hydrolysis of the ketal ([3]; pH 2, 1 h): 21.9 | hydrolysis of the ketal ([3]; pH 2, 2 h): 37.7 | hydrolysis of the ketal ([3]; pH 2, 4 h): 58.2 | hydrolysis of the ketal ([3]; pH 2.5, 0 h): 0 | hydrolysis of the ketal ([3]; pH 2.5, 0.33 h): 0 | hydrolysis of the ketal ([3]; pH 2.5, 1 h): 0 | hydrolysis of the ketal ([3]; pH 2.5, 2 h): 15.9 | hydrolysis of the ketal ([3]; pH 2.5, 4 h): 26.4 | hydrolysis of the ketal ([3]; pH 3, 0 h): 0 | hydrolysis of the ketal ([3]; pH 3, 0.33 h): 0 | hydrolysis of the ketal ([3]; pH 3, 1 h): 0 | hydrolysis of the ketal ([3]; pH 3, 2 h): 5.9 | hydrolysis of the ketal ([3]; pH 3, 4 h): 12.7 | hydrolysis of the ketal ([3]; pH 4, 4 h, estimated from longer hydrolysis times): 1.3* | hydrolysis of the ketal ([3]; pH 5, 4 h, estimated from longer hydrolysis times): 0.15* | hydrolysis of the ketal ([3]; pH 7, 4 h, estimated from longer hydrolysis times): 0.01* | hydrolysis of the ketal ([3]; pH 12, 4 h, estimated from longer hydrolysis times): 0.01* | pH at which hydrolysis of the ketal is fastest ([3]; pH buffers 37° C.): fastest at pH 1

Hydrocodone 2S,5S-hexanediol ketal [2S,5S ketal]
relative rate of hydrolysis [2]: hydrolyzes relatively slowly | Hydrocodone, 2S,5S ketal in hydrolysis mixture ([2]; 0.1 N HCl 37° C., 0 h): 81.98 | Hydrocodone, 2S,5S ketal in hydrolysis mixture ([2]; 0.1 N HCl 37° C., 0.5 h): 52.18 | Hydrocodone, 2S,5S ketal in hydrolysis mixture ([2]; 0.1 N HCl 37° C., 1.25 h): 35.11 | Hydrocodone, 2S,5S ketal in hydrolysis mixture ([2]; 0.1 N HCl 37° C., 2 h): 10.19 | Hydrocodone, 2S,5S ketal in hydrolysis mixture ([2]; 0.1 N HCl 37° C., 3 h): 4.29 | Hydrocodone, 2S,5S ketal in hydrolysis mixture ([2]; 0.1 N HCl 37° C., 4 h): 2

hydrocodone 2,5-hexanediol ketal
extent of hydrolysis to hydrocodone in about 4 hours ([2]; 0.1 N HCl 37° C.): nearly complete hydrolysis

hydrocodone 2R,5R-hexanediol ketal [2R,5R ketal]
relative rate of hydrolysis [2]: hydrolyzes relatively quickly | Hydrocodone, 2R,5R ketal in hydrolysis mixture ([2]; 0.1 N HCl 37° C., 0 h): 73.88 | Hydrocodone, 2R,5R ketal in hydrolysis mixture ([2]; 0.1 N HCl 37° C., 0.5 h): 34.6 | Hydrocodone, 2R,5R ketal in hydrolysis mixture ([2]; 0.1 N HCl 37° C., 1.25 h): 11.37 | Hydrocodone, 2R,5R ketal in hydrolysis mixture ([2]; 0.1 N HCl 37° C., 2 h): 2.67 | Hydrocodone, 2R,5R ketal in hydrolysis mixture ([2]; 0.1 N HCl 37° C., 3 h): 0 | Hydrocodone, 2R,5R ketal in hydrolysis mixture ([2]; 0.1 N HCl 37° C., 4 h): 0

oxycodone cis 1,2-cyclohexanedimethanol ketals
proportion of oxycodone in the mixture ([2]; 0.1 N HCl 37° C., within five hours, FIG. 4): increased from about 30% to about 55%
